The record followed here is patent US20040242501A1, “Spermicidal and virucidal properties of various forms of sophorolipids” (priority 2003, published 2004).

For one series, the system named is MT-2 cells. Kind of series: Agent-induced cytotoxicity in cell-free inactivation assay. It is filed as cell-based. The settings on record: for TCTD50 Cytotoxicity: MT-2 cells, day 7. More on the design: TCTD50 Cytotoxicity: unit not given here. The protocol: (§1) Pre-titered concentrated virus (HIV-1 RF) stock (10 μL) was mixed with 90 μL of the test agent formulation in microtubes. At the end of the two-minute exposure period, serial 10-fold dilutions were carried out with a multichannel pipettor so that the sample dilutions were performed simultaneously. Aliquots (100 μL) of the serial dilutions were then transferred simultaneously to another 96-well plate which had been pre-seeded with MT-2 cells in RPMI medium supplemented with FBS. Four wells were used for each dilution of virus. The cultures were incubated at 37° C. in a humidified atmosphere of 5% CO2. The cultures were scored microscopically for virus-induced cytopathic effect and agent-induced cytotoxicity on day 4 and 7 of incubation, and day 7 reported. Cultures were routinely maintained 2 to 3 days after initial analysis, and observed visually and microscopically for abnormalities.

The next series has as its system HIV-1 RF. Kind of series: Cell-free HIV inactivation assay. To be noted: for virucidal / antiviral activity, in words: HIV as model organism, positive = minimum reduction in virus titer of 2 logs; for Log Reduction in Virus Titer: two-minute exposure, day 7, virus control 6.0 log10 TCID50/0.1 mL. It is filed as cell-based, human immunodeficiency virus (HIV). The protocol:
as §1

The test system of series [1] is human spermatozoa (swim-up sperm). The series is described as follows: Sperm viability after washing (HOS medium). It is filed as cell-based. The settings on record: 0.3 mg/mL, post-wash, mean ± SD, n=5. The protocol: (§2) Motility and viability time-responses were studied with a sophorolipid testing concentration of 0.3 mg/mL. At this concentration no effect of the solvent was observed. All sperm used for this experiment and throughout the study were obtained from human semen samples through a one hour swim-up separation technique in BWW medium+0.1% HSA. 100 uL of swim-up sperm were incubated with 1 uL of compound for the time points of 2 min, 30 min, 2 hrs, and 4 hrs and assessed for progressive motility (“real-time” assessment). n=5 for all time points. Co-incubation samples were diluted with 1 mL of BWW medium+0.1% HSA. The tubes were centrifuged, the supernatant removed, and the sperm resuspended in the original volume of 100 uL BWW+0.1% HSA and incubated at 37° C., 5% CO2. At 30 min post-washing, motility was again assessed. After the 30 min post-wash assessment, 900 uL of HOS medium was added to the sample and tubes were incubated for 30 min at 37° C. Post-incubation, samples were assessed for viability. Motility and viability were quantified “manually” under dark field microscopy (Nikon E-800).

Series [2] shares this test system. Kind of series: Sperm motility time response (real-time and post-dilution/post-wash). The format is cell-based. To be noted: 0.3 mg/mL, mean ± SD, n=5; for Real-Time Motility (%): initial solvent DMSO; for Post-Dilution Motility (%): then washed, 30 min post-washing. How it is done: as §2
Where [3] appears, read: Percent of agent during exposure 0.03.
[4] abbreviates: Percent of agent during exposure 0.09.
Setting [5] is: Percent of agent during exposure 0.3.

Take `CCOC(=O)CCCCCCC/C=C\CCCCCCC(C)O[C@@H]1O[C@H](CO)[C@@H](O)[C@H](O)[C@H]1O[C@@H]1O[C@H](CO)[C@@H](O)[C@H](O)[C@H]1O` (stereo partly shown): the “cytotoxicity, in words” value in the series with MT-2 cells was “reduced cytotoxicity”. The “virucidal / antiviral activity, in words” value with HIV-1 RF is “high activity”. In the series with HIV-1 RF (comparison among the four sophorolipids of Table 2), the “selectivity index (virucidal activity vs cytotoxicity), in words” value is reported as “best selectivity index”.

For `CCCCCCOC(=O)CCCCCCC/C=C\CCCCCCC(C)O[C@@H]1O[C@H](CO)[C@@H](O)[C@H](O)[C@H]1O[C@@H]1O[C@H](CO)[C@@H](O)[C@H](O)[C@H]1O` (relative stereo) [SLHEX, Hexyl 17-L-[(2′-O-β-D-glucopyranosyl-β-D-glucopyranosyl)-oxy]-cis-9-octadecenoate], the “TCTD50 Cytotoxicity” value in the series on MT-2 cells (setting [3]) was “≦0.5”; in the series on MT-2 cells (setting [4]), “≦0.5”; with MT-2 cells (setting [5]), 1.5. Moreover, the “Log Reduction in Virus Titer” value was determined as 0 Log in the series with HIV-1 RF (setting [3]), 3.0 Log with HIV-1 RF (setting [4]) and 4.0 Log in the series with HIV-1 RF (setting [5]). Besides, the “Post-Dilution Viability (%)” value is given as 2.27 ± 3.22% in series [1] (2 min incubation), 1.10 ± 2.46% in series [1] (30 min incubation) and 0.00 ± 0.00% in series [1] (2 hour incubation). Besides, the “Real-Time Motility (%)” value in series [2] (2 min incubation) was determined as 1.26 ± 1.22%; in series [2] (30 min incubation), 0.00 ± 0.00%; in series [2] (2 hour incubation), 0.00 ± 0.00%. For the same molecule, the “Post-Dilution Motility (%)” value stood at 1.55 ± 2.18% in series [2] (2 min incubation), 0.00 ± 0.00% in series [2] (30 min incubation) and 0.00 ± 0.00% in series [2] (2 hour incubation).

Take `CCOC(=O)CCCCCCC/C=C\CCCCCCC(C)O[C@@H]1O[C@H](COC(C)=O)[C@@H](O)[C@H](O)[C@H]1O[C@@H]1O[C@H](COC(C)=O)[C@@H](O)[C@H](O)[C@H]1O` (relative stereo) [SLETDA, Ethyl 17-L[(2′-O-β-D glucopyranosyl-β-D-glucopyranosyl)-oxy]-cis-9-octadecenoate 6′,6″-diacetate]: the “TCTD50 Cytotoxicity” value in the series on MT-2 cells (setting [3]) is “≦0.5”; in the series on MT-2 cells (setting [4]) it was 1.5; in the series with MT-2 cells (setting [5]), 1.5. For the same molecule, the “Log Reduction in Virus Titer” value in the series with HIV-1 RF (setting [3]) is 1.7 Log; in the series on HIV-1 RF (setting [4]) it was “≧4.5 Log”; with HIV-1 RF (setting [5]) it was “≧4.5 Log”. For the same molecule, the “Post-Dilution Viability (%)” value in series [1] (2 min incubation) is on record as 0.40 ± 0.90%; in series [1] (30 min incubation), 0.20 ± 0.45%; in series [1] (2 hour incubation), 0.00 ± 0.00%. Also, the “Real-Time Motility (%)” value in series [2] (2 min incubation), in series [2] (30 min incubation) and in series [2] (2 hour incubation) was 0.00 ± 0.00% throughout. For the same molecule, the “Post-Dilution Motility (%)” value in series [2] (2 min incubation), in series [2] (30 min incubation) and in series [2] (2 hour incubation) was 0.00 ± 0.00% in each case.

Take `CCOC(=O)CCCCCCC/C=C\CCCCCCC(C)O[C@@H]1O[C@H](CO)[C@@H](O)[C@H](O)[C@H]1O[C@@H]1O[C@H](CO)[C@@H](O)[C@H](O)[C@H]1O` (relative stereo) [SLET, Ethyl 17-L-[(2′-O-β-D-glucopyranosyl-β-D-glucopyranosyl)-oxy]-cis-9-octadecenoate]: the “TCTD50 Cytotoxicity” value in the series with MT-2 cells (setting [3]) was “≦0.5”; in the series with MT-2 cells (setting [4]), “≦0.5”; in the series with MT-2 cells (setting [5]) it was 1.5. Moreover, the “virucidal / antiviral activity, in words” value with HIV-1 RF (listed as ethyl ester form of sophorolipid) is recorded as “highly effective”. Also, the entries for the “Log Reduction in Virus Titer” value in the series on HIV-1 RF (setting [3]), in the series with HIV-1 RF (setting [4]) and in the series on HIV-1 RF (setting [5]) were 2.0 Log, 3.3 Log and 4.3 Log, respectively. Also, the “Post-Dilution Viability (%)” value turned out to be 2.36 ± 5.29% in series [1] (2 min incubation), 1.00 ± 2.24% in series [1] (30 min incubation) and 0.00 ± 0.00% in series [1] (2 hour incubation). Also, the results for the “Real-Time Motility (%)” value in series [2] (2 min incubation), in series [2] (30 min incubation) and in series [2] (2 hour incubation) were 0.73 ± 0.81%, 0.00 ± 0.00% and 0.00 ± 0.00%, respectively. Besides, the figures for the “Post-Dilution Motility (%)” value in series [2] (2 min incubation), in series [2] (30 min incubation) and in series [2] (2 hour incubation) were 3.37 ± 3.87%, 0.00 ± 0.00% and 0.00 ± 0.00%, respectively.
